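Exposure lasted 48 hours, with cells grown in 96-well plates and compounds tested at five concentrations. The concentration for 50% growth inhibition is given as GI50.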 Calls of active or inactive are those of the source. Cut-off read from the data, not from the text of the source: active = GI50 up to about 1.1 µM and inactive = higher.
Experiments:
Experiment in all cases: NCI anticancer screen, dose series, 48 h
[1] = tested on: OVCAR-3
[2] = tested on: IGROV-1
[3] = tested on: COLO 205
[4] = tested on: NCI/ADR-RES
[5] = tested on: NCI-H522
[6] = tested on: SNB-75
[7] = tested on: SK-MEL-28
[8] = tested on: MDA-N
[9] = tested on: SNB-19
[10] = tested on: DU-145
[11] = tested on: MOLT-4
[12] = tested on: OVCAR-5
[13] = tested on: CCRF-CEM
[14] = tested on: KM12
[15] = tested on: CAKI-1
[16] = tested on: NCI-H226
[17] = tested on: SF-539
[18] = tested on: LOX IMVI
[19] = tested on: HCT-116

SMILES | GI50 [1] | GI50 [2] | GI50 [3] | GI50 [4] | GI50 [5] | GI50 [6] | GI50 [7] | GI50 [8] | GI50 [9] | GI50 [10] | GI50 [11] | GI50 [12] | GI50 [13] | GI50 [14] | GI50 [15] | GI50 [16] | GI50 [17] | GI50 [18] | GI50 [19]
Cc1ccc(NC(=O)c2cc(S(=O)(=O)N3CCNNC3=O)c(S)cc2Cl)cc1 | > 100 µM (inactive) | > 100 µM (inactive) | > 100 µM (inactive) | > 100 µM (inactive) | 26.5 µM (inactive) | > 100 µM (inactive) | > 100 µM (inactive) | > 100 µM (inactive) | > 100 µM (inactive) | > 100 µM (inactive) | > 100 µM (inactive) | > 100 µM (inactive) | > 100 µM (inactive) | > 100 µM (inactive) | > 100 µM (inactive) | > 100 µM (inactive) | > 100 µM (inactive) | > 100 µM (inactive) | > 100 µM (inactive)
COc1cc2c(cc1OCCCCN1C(=O)c3cccc4cccc(c34)C1=O)N=C[C@@H]1CCCN1C2=O | 3.4 µM (inactive) | 2.07 µM (inactive) | 2.72 µM (inactive) | 6.52 µM (inactive) | 1.68 µM (inactive) | – | 11.7 µM (inactive) | 2.31 µM (inactive) | 6.17 µM (inactive) | 4.01 µM (inactive) | 3.25 µM (inactive) | 4.95 µM (inactive) | 1.64 µM (inactive) | 3.57 µM (inactive) | 2.58 µM (inactive) | 8.36 µM (inactive) | 2.55 µM (inactive) | 3.83 µM (inactive) | 3.59 µM (inactive)
COc1cc([C@@H]2c3cc4c(cc3[C@@H](c3c(O)cc(O)c5c3O[C@H](c3ccc(O)c(O)c3)[C@H](OC(=O)c3cc(O)c(O)c(O)c3)C5)[C@H]3COC(=O)[C@H]23)OCO4)cc(OC)c1OC | 4.01 µM (inactive) | 27 µM (inactive) | 25.9 µM (inactive) | 33 µM (inactive) | 3.92 µM (inactive) | 3.47 µM (inactive) | > 50.7 µM (inactive) | 3.07 µM (inactive) | 52.7 µM (inactive) | 22.7 µM (inactive) | 7.74 µM (inactive) | 53.3 µM (inactive) | 2.44 µM (inactive) | 3.88 µM (inactive) | 13.8 µM (inactive) | 2.65 µM (inactive) | 4.22 µM (inactive) | 5.77 µM (inactive) | 5 µM (inactive)
C#CCOC(=O)C(N)CSSCC(N)C(=O)O (configuration not stated) | – | > 100 µM (inactive) | > 100 µM (inactive) | > 100 µM (inactive) | > 100 µM (inactive) | > 100 µM (inactive) | > 100 µM (inactive) | > 100 µM (inactive) | > 100 µM (inactive) | > 100 µM (inactive) | > 100 µM (inactive) | > 100 µM (inactive) | > 100 µM (inactive) | > 100 µM (inactive) | > 100 µM (inactive) | > 100 µM (inactive) | > 100 µM (inactive) | 65.9 µM (inactive) | > 100 µM (inactive)
COC1=C2CC(C)CC(OC)C(OC(=O)CCCN)C(C)/C=C(\C)C(OC(N)=O)C(OC)/C=C\C=C(/C)C(=O)NC(=CC1=O)C2=O (configuration not stated) | 3.2 µM (inactive) | 7.08 µM (inactive) | 0.431 µM (active) | 19.9 µM (inactive) | 0.431 µM (active) | 18.7 µM (inactive) | 8.61 µM (inactive) | 4.33 µM (inactive) | 15.4 µM (inactive) | 9.23 µM (inactive) | 0.815 µM (active) | 10.2 µM (inactive) | 0.766 µM (active) | 10.3 µM (inactive) | 10.7 µM (inactive) | 16.3 µM (inactive) | 6.71 µM (inactive) | 2.64 µM (inactive) | 3.98 µM (inactive)
COc1ccc(OC)c(C2CCc3c(cnc4nc(N)nc(N)c34)C2)c1 (configuration not stated) | 15.5 µM (inactive) | 2.29 µM (inactive) | 16.1 µM (inactive) | 55.3 µM (inactive) | 6.24 µM (inactive) | – | 13.7 µM (inactive) | 2.07 µM (inactive) | 6.92 µM (inactive) | 13.9 µM (inactive) | 2.49 µM (inactive) | 4.7 µM (inactive) | – | 11.4 µM (inactive) | 14 µM (inactive) | 24.9 µM (inactive) | 22.8 µM (inactive) | 1.32 µM (inactive) | 1.83 µM (inactive)
O=C(O)c1cccc(S(=O)(=O)NN2C(=O)CSC2c2c(O)ccc3ccccc23)c1 (configuration not stated) | 20.6 µM (inactive) | 18 µM (inactive) | 38 µM (inactive) | 22.1 µM (inactive) | 27.8 µM (inactive) | 30.6 µM (inactive) | 26.4 µM (inactive) | 37.8 µM (inactive) | 26.4 µM (inactive) | 44.7 µM (inactive) | 19 µM (inactive) | 79.3 µM (inactive) | 16 µM (inactive) | 41.3 µM (inactive) | 25.5 µM (inactive) | 34.8 µM (inactive) | 22.2 µM (inactive) | 27.4 µM (inactive) | 19.6 µM (inactive)
O=S(=O)(O)c1ccc2c(/N=N/c3ccccc3)c(O)c(S(=O)(=O)O)cc2c1 | > 100 µM (inactive) | > 100 µM (inactive) | > 100 µM (inactive) | > 100 µM (inactive) | > 100 µM (inactive) | > 100 µM (inactive) | > 100 µM (inactive) | > 100 µM (inactive) | > 100 µM (inactive) | > 100 µM (inactive) | > 100 µM (inactive) | > 100 µM (inactive) | > 100 µM (inactive) | > 100 µM (inactive) | > 100 µM (inactive) | > 100 µM (inactive) | > 100 µM (inactive) | – | > 100 µM (inactive)
